The values below come from publication PMC5007466, “VCP recruitment to mitochondria causes mitophagy impairment and neurodegeneration in models of Huntington's disease” (Nature Communications, 2016).

One assay relates to YAC128 mice. The experiment in a line: DARPP-32 protein level in YAC128 striatal extracts. It is filed as in vivo, mouse. The conditions noted are these: 3 mg/kg/day, n=6. The procedure:
YAC128 mice (Tg) and their age-matched wt littermates were implanted with an osmotic pump containing TAT control peptide or HV-3 peptide (3 mg/kg/day, each) starting from the age of 3 months. The pump was replaced once every month. By the age of 12 months, the treatments were terminated and the mouse samples were harvested for analysis.
Protein concentrations were determined by Bradford assay. Protein was resuspended in Laemmli buffer, loaded on SDS–PAGE, and transferred onto nitrocellulose membranes. Membranes were probed with the indicated antibodies, followed by visualization with ECL. Representative blots have been cropped for presentation. Images of full-size blots are presented in Supplementary Fig. 9.

Assay [1] relates to HD patient-iPS cell derived neurons. Kind of assay: Mitochondrial mass (Mitotracker green). The settings on record: 1 μM per day for 5 days. It is filed as cell-based, human. On the procedure: iPS cells from a normal subject and a HD patient (carrying 41 CAG repeats) were differentiated into neurons using the protocol from our previous studies. Briefly, iPS cells were plated onto 6-well plates precoated with 2.5% Matrigel and allowed to reach 90% confluence in feeder-free medium. For the first 10 days, cells were treated with SB431542 (10 μM; Tocris Bioscience) and Noggin (100 ng/ml) in Neural Media (NM) containing Neurobasal and DMEM (1:1), B27 supplement minus vitamin A (50 × , Invitrogen), N2 supplement (100 × , Invitrogen), GlutaMax (Invitrogen, 100 × ), FGF2 ([…]) and EGF ([…]), 100 units per ml penicillin and 100 μg ml^−1 streptomycin). […]
To determine mitochondrial mass in cultures, cells were stained with antibodies against Tom20 or stained with Mitotracker green. The fluorescent density of Tom20 (1:500) or mitotracker green was quantitated using NIH Image J software. […] The images were visualized by microscope and quantitation of the density of red fluorescence was carried out using NIH ImageJ software. For immunocytochemistry study, at least 100 cells per group were counted and quantitated by an observer blind to experimental conditions.

Assay [2] concerns the target T1, full-length mouse VCP/p97 (Mus musculus, UniProt Q01853).
T1 construct: The full-length mouse VCP/p97 (residues 2–806) was expressed with an N-terminal 6xHis-tag; 6xHis (N); host or cells: Escherichia coli Rosetta (DE3)
Kind of assay: Isothermal titration calorimetry (ITC). It is filed as binding. The conditions noted are these: 15 °C. The procedure:
The full-length mouse VCP/p97 (residues 2–806) was expressed with an N-terminal 6xHis-tag (Addgene: plasmid # 12373) in the Rosetta (DE3) strain of Escherichia coli (Novagen) as previously described. Briefly, the cells were grown in LB media supplemented with Kanamycin and induced at OD∼1.0 for 16 h at 18 °C. Cells were homogenized in Buffer A (500 mM KCl, 25 mM Hepes pH 8.0, and 2 mM β-mercaptoethanol) in the presence of EDTA-free Complete Protease Inhibitor (Roche) and 2 mM PMSF. The lysate was cleared by centrifugation at 45,000 g for 1 h at 4 °C. Supernatant was incubated with 2 ml of Ni-NTA agarose resin (Qiagen) for 2 h at 4 °C. The resin was washed with Buffer A containing 50 mM imidazole and eluted with Buffer A containing 400 mM imidazole. VCP protein was further purified by passing through Superdex 200 increase 10/300 GL (GE Healthcare) size exclusion column equilibrated with Buffer B (250 mM KCL, 25 mM Hepes pH 8.0, 2 mM β-mercaptoethanol and 1 mM MgCl2). The fractions containing the pure sample, as determined by SDS–PAGE analysis, were pooled and concentrated to a final concentration of ∼3–5 mg ml^−1.
Binding of HV-3 peptide to VCP was measured by isothermal titration calorimetry on a MicroCal ITC200 (GE Healthcare). Before the calorimetric titrations, the protein was exchanged into Buffer C (100 mM NaCl, 10 mM Hepes, pH 8.0) on a PD-10 column (Amersham Biosciences) and concentrated to ∼5–6 mg ml^−1. The final concentration of protein in the cell (∼60–70 μM) was determined on a NanoDrop Spectrophotometer (Thermo Scientific NanoDrop 2000) using a molecular weight of 89.32 KDa and a molar extinction coefficient of […]. The HV-3 peptide was dissolved in Buffer C to a final concentration of 2 mM and loaded into the syringe. The measurements were made at a constant cell temperature of 15 °C and repeated at least three times. Thirty successive injections of 1.2 μl each were titrated into the cell with constant stirring at 1,000 r.p.m. An equilibration time of 150 s was set between consecutive injections. The binding isotherms were analysed with the MicroCal Origin software. For measurements of heat of dilution, the protein sample in the cell was replaced by Buffer C and all other conditions were kept identical.
A general note: Isothermal titration calorimetry measures the heat released or taken up as one component is titrated into another.

Assay [3] relates to HdhQ111 / HdhQ7 mouse striatal cells. Kind of assay: LDH release (cell death) after serum withdrawal. It is filed as cell-based. The procedure:
HdhQ7 and Q111 mouse striatal cells were treated with the HV-3 peptide or the control peptide TAT (3 μM, each) in an FBS-free DMEM medium or in DMEM containing 10% serum for 24 h. Medium from the cultured cells was harvested. Proteins from the medium were purified using Amicon Ultra 0.5 ml centrifugal filters (Millipore). HMGB1 release into the medium was then analysed by Western blotting with anti-HMGB1 antibody. In parallel, cell death was determined by measuring LDH release into the culture medium, using LDH-Cytotoxicity Assay Kit II (Roche, USA) by following the manufacturer's instruction.
On the technique in general: Release of lactate dehydrogenase indicates damage to the cell membrane.

By Kd is commonly meant the concentration at which binding is half-saturated. A low value points to tighter binding.

Molecules are shown by their SMILES.

T1 sequence (Q01853 2-806): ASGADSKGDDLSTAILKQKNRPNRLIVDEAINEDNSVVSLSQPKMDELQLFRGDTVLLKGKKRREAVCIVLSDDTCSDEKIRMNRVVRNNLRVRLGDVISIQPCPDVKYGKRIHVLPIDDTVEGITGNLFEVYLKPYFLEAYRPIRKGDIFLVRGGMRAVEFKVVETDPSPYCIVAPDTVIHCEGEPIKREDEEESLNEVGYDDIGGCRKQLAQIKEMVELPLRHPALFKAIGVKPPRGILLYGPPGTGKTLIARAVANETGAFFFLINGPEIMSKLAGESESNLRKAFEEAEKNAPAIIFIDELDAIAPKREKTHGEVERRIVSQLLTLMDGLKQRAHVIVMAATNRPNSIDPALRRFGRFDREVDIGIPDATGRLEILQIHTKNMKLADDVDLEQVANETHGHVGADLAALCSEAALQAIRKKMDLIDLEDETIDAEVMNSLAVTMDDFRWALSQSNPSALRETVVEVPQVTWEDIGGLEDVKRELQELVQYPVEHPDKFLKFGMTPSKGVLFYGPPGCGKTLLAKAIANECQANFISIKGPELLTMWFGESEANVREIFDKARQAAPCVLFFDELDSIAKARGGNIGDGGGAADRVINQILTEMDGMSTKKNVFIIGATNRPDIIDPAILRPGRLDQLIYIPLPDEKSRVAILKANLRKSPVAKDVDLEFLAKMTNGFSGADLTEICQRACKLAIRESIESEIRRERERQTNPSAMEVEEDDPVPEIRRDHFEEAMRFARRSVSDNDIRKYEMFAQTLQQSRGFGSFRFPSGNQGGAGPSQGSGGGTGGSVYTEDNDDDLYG

In the case of `CSCC[C@H](NC(=O)[C@@H](NC(=O)[C@H](CC(C)C)NC(=O)[C@@H](NC(=O)[C@H](Cc1c[nH]cn1)NC(=O)CCCCCNC(=O)[C@H](CCCNC(=N)N)NC(=O)[C@H](CCCNC(=N)N)NC(=O)[C@H](CCCNC(=N)N)NC(=O)[C@H](CCC(N)=O)NC(=O)[C@H](CCCNC(=N)N)NC(=O)[C@H](CCCNC(=N)N)NC(=O)[C@H](CCCCN)NC(=O)[C@H](CCCCN)NC(=O)[C@H](CCCNC(=N)N)NC(=O)CNC(=O)[C@@H](N)Cc1ccc(O)cc1)C(C)C)C(C)C)C(=O)N[C@@H](CS)C(=O)N[C@@H](C)C(=O)N[C@H](C(N)=O)[C@@H](C)O` [HV-3], in the assay with YAC128 mice, the DARPP-32 protein level entry is “significantly increased DARPP-32 levels in the two mouse models”. Further, the mitochondrial mass result in assay [1] is “corrected these aberrant events”. Besides, the Kd in assay [2] (100 mM NaCl, 10 mM Hepes pH 8.0, protein ∼60–70 μM, HV-3 2 mM in syringe, repeated at least three times) was found to be 17.9 ± 7 µM. In assay [2] (pH 8.0), the “n (stoichiometry)” value worked out at 2.02±0.23, the ΔH was -2.145 ± 0.65 kcal/mol and the ΔS is recorded as 13.97±3.4 cal mol^−1 deg^−1. The LDH release result in assay [3] (HdhQ111 cells, 24 h serum withdrawal, 3 μM) was “reduced the release of high mobility group box 1 (HMGB1) and lactate dehydrogenase (LDH)”. Further, the “cell survival rate, wt” value in assay [3] (wt counterparts of the HD models) is listed as “only minor effects”.
